Results on 16 compounds are retold here after patent US6110939A, “(Benzimidazolyl- and imidazopyridinyl) containing 1-(1,2-disubstituted piperidinyl) derivatives” (Janssen Pharmaceutica N.V., priority 1995, dated 2000).

What is called inhibition is how much of the control response was suppressed. A low value points to a response near the control. For orientation: % inhibition means the change of the read-out against control, counted positive when it falls. Higher therefore signals a response far below the control.

The assay concerns substance P induced relaxation of the pig coronary arteries. Put plainly: Antagonism of substance P induced relaxation of the pig coronary arteries. Type of assay: cell-based. Conditions: response to 10^-9 M substance P, 30 min incubation; for inhibition at 0.003 µM / inhibition at 0.03 µM: Sus scrofa, 0.5 h; for inhibition at 0.003 µM: test compound 3 × 10^-9; for inhibition at 0.03 µM / % inhibition: test compound 3 × 10^-8. On the procedure: Antagonism of substance P induced relaxation of the pig coronary arteries
Segments of coronary arteries taken from pigs (killed by injection of an overdose of sodium pentobarbital) were inverted and mounted for recording of isometric tension in organ baths (volume 20 ml) with the endothelium at the outside. The preparations were bathed in Krebs - Henseleit solution. The solution was kept at 37° C. and gassed with a mixture of O2 /CO2 (95/5). After stabilisation of the preparations, prostaglandin F2α (10^-5 M) was administered to induce a contraction. This was repeated until contractile responses became stable. Then prostaglandin F2α was again administered and substance P (3×10^-10 M and 10^-9 M cumulatively) was added. […] After washing away the agonists, a known concentration of a compound of formula (I) was added. After an incubation period of 30 minutes, prostaglandin F2α (10^-5 M) and the same concentrations of substance P as described above were again administered in the presence of the compound to be tested.

As to `Cc1ncc(Cn2c(NC3CCN([C@@H]4CCN(C(=O)c5cccs5)[C@@H](Cc5ccccc5)C4)CC3)nc3ccccc32)o1` (relative stereo) [Compound 56], the inhibition at 0.003 µM was 8.7%.

On to `Cc1ncc(Cn2c(NC3CCN([C@@H]4CCN(C(=O)c5sc(C)nc5C)[C@H](Cc5ccccc5)C4)CC3)nc3ccccc32)o1` (relative stereo) [Compound 65], for which the inhibition at 0.003 µM was 9.7%.

On to `CCOCCn1c(N[C@@H]2CCN(C(=O)c3cc(C(F)(F)F)ccc3C(F)(F)F)[C@@H](Cc3ccc(Cl)cc3)C2)nc2ccccc21` (relative stereo) [Compound 144], for which 0.003 µM produced 88.4% inhibition.

As for `CCOCCn1c(N[C@@H]2CCN(C(=O)c3cc(C(F)(F)F)ccc3C(F)(F)F)[C@H](Cc3ccc(Cl)cc3)C2)nc2ccccc21` (relative stereo) [Compound 145], the inhibition at 0.003 µM amounted to 92.2%.

Compound `CCOCCn1c(N[C@@H]2CCN(C(=O)c3cc(C(F)(F)F)cc(C(F)(F)F)c3)[C@H](Cc3ccc(C(F)(F)F)cc3)C2)nc2ccccc21` (relative stereo) [Compound 146] gave an inhibition at 0.003 µM of 51.8%.

Turning to `CCOCCn1c(N[C@@H]2CCN(C(=O)c3cc(C(F)(F)F)cc(C(F)(F)F)c3)[C@@H](Cc3ccc(F)c(F)c3)C2)nc2ccccc21` (relative stereo) [Compound 147], the inhibition at 0.03 µM came to 95.6%.

Regarding `CCOCCn1c(N[C@@H]2CCN(C(=O)c3cc(C(F)(F)F)cc(C(F)(F)F)c3)[C@H](Cc3ccc(F)c(F)c3)C2)nc2ccccc21` (relative stereo) [Compound 148], the inhibition at 0.03 µM was 100%.

In the case of `CCOCCn1c(NC2CCN(C3CCN(C(=O)c4cc(C(F)(F)F)cc(C(F)(F)F)c4)C(Cc4ccccc4)C3)C(Cc3ccccc3)C2)nc2ccccc21` (stereo not drawn) [Compound 13, 2α,4α-trans-1-[3,5-bis(trifluoromethyl)benzoyl]-4-[4-[[1-(2-ethoxyethyl)-1H-benzimidazol-2-yl]amino]-2-(phenylmethyl)-1-piperidinyl]-2-(phenylmethyl)piperidine], the “% inhibition” value turned out to be 19.9%.

As for `CCOCCn1c(NC2CCN(C3CCN(C(=O)c4cc(C(F)(F)F)cc(C(F)(F)F)c4)C(Cc4ccccc4)C3)C(Cc3ccccc3)C2)nc2ccccc21` (stereo not drawn) [Compound 14, 2α,4β-trans-1-[3,5-bis(trifluoromethyl)benzoyl]-4-[4-[[1-(2-ethoxyethyl)-1H-benzimidazol-2-yl]amino]-2-(phenylmethyl)-1-piperidinyl]-2-(phenylmethyl)piperidine], the “% inhibition” value was found to be 53.3%.

As for `Cc1ccc(Cn2c(C(O)C3CCN([C@H]4CCN(C(=O)c5cc(C(F)(F)F)cc(C(F)(F)F)c5)[C@@H](Cc5ccccc5)C4)CC3)nc3ccccc32)o1` (stereo partly shown) [Compound 21], the inhibition at 0.03 µM was 95.8%.

Consider `Cc1ccc(Cn2c(C(O)C3CCN([C@H]4CCN(C(=O)c5cc(C(F)(F)F)cc(C(F)(F)F)c5)[C@@H](Cc5ccccc5)C4)CC3)nc3ccccc32)o1` (stereo partly shown) [Compound 22], for which the inhibition at 0.003 µM was determined as 89.4%.

Regarding `Cc1ccc(Cn2c(C(O)C3CCN(C4CCN(C(=O)c5cc(C(F)(F)F)cc(C(F)(F)F)c5)C(Cc5ccccc5)C4)CC3)nc3ccccc32)o1` (stereo not shown) [Compound 23], the inhibition at 0.003 µM was 94.3%.

`Cc1ccc(Cn2c(NC3CCN([C@@H]4CCN(C(=O)c5cc(C(F)(F)F)cc(C(F)(F)F)c5)[C@H](Cc5ccccc5)C4)C3)nc3cccnc32)o1` (stereo partly shown) [Compound 30] returned an inhibition at 0.03 µM of 87.5%.

`Cc1ccc(Cn2c(NC3CCN([C@@H]4CCN(C(=O)c5cc(C(F)(F)F)cc(C(F)(F)F)c5)[C@@H](Cc5ccccc5)C4)C3)nc3cccnc32)o1` (stereo partly shown) [Compound 31] displayed an inhibition at 0.003 µM of 90.6%.

Consider `CCOCCn1c(NC2CCCN(C(=O)c3cc(C(F)(F)F)cc(C(F)(F)F)c3)C(Cc3ccccc3)C2)nc2ccccc21` (stereo not shown) [Compound 149], for which testing at 0.03 µM gave an inhibition of 12.7%.

The compound `CCOCCn1c(NC2CCC(Cc3ccccc3)N(C(=O)c3cc(C(F)(F)F)cc(C(F)(F)F)c3)CC2)nc2ccccc21` (stereo not shown) [Compound 150] had an inhibition at 0.03 µM of 98.1%.
